For orientation: logD means lipophilicity at a set pH, counting ionised and neutral species. A word on the inhibition: it is the drop in the measured response relative to a control, in per cent. By clearance is commonly meant the rate of elimination divided by the concentration. A word on the half-life: it is how long it takes for the measured level to halve. In general, bioavailability refers to dose-corrected exposure relative to a reference, in per cent. For orientation: IC20 means the concentration needed for an effect of 20%.

Data on 15 compounds can be found in ChEMBL document CHEMBL1158517, “Discovery of carmegliptin: a potent and long-acting dipeptidyl peptidase IV inhibitor for the treatment of type 2 diabetes” (Bioorg Med Chem Lett, 2010).

Series [1] in a line: Distribution coefficient, log D at pH 7.4. Type of series: physicochemical. As to conditions: octanol/water.
The nature of series [2]: Permeability coefficient by PAMPA. The series is classed as ADME.
Series [3] concerns Rattus norvegicus. In words: Antidiabetic activity in Zucker fa/fa rat assessed as reduction in glucose level at 0.3 mg/kg pretreated 2 hrs before glucose challenge measured after 40 mins by oral glucose tolerance test. The series is classed as functional. Also on record: scale not given: the % may be the effect or the level left.
Series [4] has as its system Mus musculus. The series can be described thus: Antidiabetic activity in db/db mouse assessed as reduction in glucose AUC at 10 mg/kg by oral glucose tolerance test relative to control. The series is classed as functional. Also on record: scale not given: the % may be the effect or the level left.
The subject of series [5] is Mus musculus. In words: Antidiabetic activity in db/db mouse assessed as reduction in fasting glucose level at 10 mg/kg. The series is classed as functional, organism-based. The arrangement: dose 10 mg/kg.
In series [6] the test system is Rattus norvegicus. In words: Antidiabetic activity in Zucker fa/fa rat assessed as increase in glucose infusion rate at 20 mg/kg daily once for 7 days by euglycemic hyperinsulinemic clamp. The series is classed as functional, organism-based. The arrangement: dose 20 mg/kg.
In another series the test system is Phospholipidosis. The series can be described thus: In vitro phospholipidosis at <20uM. The series is classed as ADME.
Series [7] concerns the target T1, hERG (KCNH2) (Homo sapiens, UniProt Q12809). The series can be described thus: Inhibition of human ERG at 10 uM by patch clamp assay.
The nature of series [8]: Clearance in Wistar rat at 1 mg/kg, iv. The series is classed as ADME, organism-based. As to conditions: in vivo. Also on record: dose 1 mg/kg, route intravenous.
The nature of series [9]: Clearance in cynomolgus monkey at 1 mg/kg, iv. Also on record: dose 1 mg/kg, route intravenous. The series is classed as ADME, organism-based, Macaca fascicularis. The note with it: in vivo.
Series [10] can be described thus: Volume of distribution at steady state in Wistar rat at 1 mg/kg, iv. Also on record: dose 1 mg/kg, route intravenous. Type of series: ADME, organism-based. As to conditions: in vivo, read-out: Vdss.
Series [11] can be described thus: Volume of distribution at steady state in cynomolgus monkey at 1 mg/kg, iv. The arrangement: dose 1 mg/kg, route intravenous. The series is classed as ADME, organism-based, Macaca fascicularis. The note with it: in vivo, read-out: Vdss.
A short description of series [12]: Half life in Wistar rat at 1 mg/kg, iv. Type of series: ADME, organism-based. As to conditions: in vivo. The arrangement: dose 1 mg/kg, route intravenous.
Series [13] in a line: Half life in cynomolgus monkey at 1 mg/kg, iv. The series is classed as ADME, organism-based, Macaca fascicularis. Also on record: dose 1 mg/kg, route intravenous. The note with it: in vivo.
Series [14] can be described thus: Oral bioavailability in Wistar rat at 3 mg/kg. The series is classed as ADME, organism-based. As to conditions: in vivo.
Series [15] in a line: Oral bioavailability in cynomolgus monkey at 3 mg/kg. The note with it: in vivo. Type of series: ADME, organism-based, Macaca fascicularis.
For series [16], the system named is Rattus norvegicus. In words: Antidiabetic activity in Zucker fa/fa rat assessed as reduction in hepatic glucose production at 20 mg/kg daily once for 7 days by euglycemic hyperinsulinemic clamp. Type of series: functional.
The target of series [17] is T1, hERG (KCNH2). The series can be described thus: Inhibition of human ERG by patch clamp assay. In general terms: The patch-clamp technique gives a direct electrical read-out from membranes.
Series [18] has as its system Cynomolgus monkey. The series can be described thus: Inhibition of DPP4 in cynomolgus monkey plasma assessed as remaining activity at 3 mg/kg, po after 24 hrs relative to control. The series is classed as functional, Macaca fascicularis.
Series [19] has as its system Cynomolgus monkey. The series can be described thus: Inhibition of DPP4 in cynomolgus monkey plasma assessed as remaining activity at 3 mg/kg, po after 48 hrs relative to control. The series is classed as functional, Macaca fascicularis.
The species named for series [20] is Rattus norvegicus. The series can be described thus: Renal clearance in rat as % of total clearance. The series is classed as ADME, organism-based, Kidney. The note with it: in vivo.
The species named for a further series is Canis familiaris. The series can be described thus: Renal clearance in dog as % of total clearance. The series is classed as ADME, organism-based, Canis lupus familiaris, Kidney. The note with it: in vivo.
Another series relates to Rhesus monkey. In words: Renal clearance in monkey as % of total clearance. Type of series: ADME, organism-based, Macaca mulatta, Kidney. As to conditions: in vivo.

Active and inactive are the calls of the source. No cut-off for these calls is given here.

T1 sequence (Q12809 whole entry): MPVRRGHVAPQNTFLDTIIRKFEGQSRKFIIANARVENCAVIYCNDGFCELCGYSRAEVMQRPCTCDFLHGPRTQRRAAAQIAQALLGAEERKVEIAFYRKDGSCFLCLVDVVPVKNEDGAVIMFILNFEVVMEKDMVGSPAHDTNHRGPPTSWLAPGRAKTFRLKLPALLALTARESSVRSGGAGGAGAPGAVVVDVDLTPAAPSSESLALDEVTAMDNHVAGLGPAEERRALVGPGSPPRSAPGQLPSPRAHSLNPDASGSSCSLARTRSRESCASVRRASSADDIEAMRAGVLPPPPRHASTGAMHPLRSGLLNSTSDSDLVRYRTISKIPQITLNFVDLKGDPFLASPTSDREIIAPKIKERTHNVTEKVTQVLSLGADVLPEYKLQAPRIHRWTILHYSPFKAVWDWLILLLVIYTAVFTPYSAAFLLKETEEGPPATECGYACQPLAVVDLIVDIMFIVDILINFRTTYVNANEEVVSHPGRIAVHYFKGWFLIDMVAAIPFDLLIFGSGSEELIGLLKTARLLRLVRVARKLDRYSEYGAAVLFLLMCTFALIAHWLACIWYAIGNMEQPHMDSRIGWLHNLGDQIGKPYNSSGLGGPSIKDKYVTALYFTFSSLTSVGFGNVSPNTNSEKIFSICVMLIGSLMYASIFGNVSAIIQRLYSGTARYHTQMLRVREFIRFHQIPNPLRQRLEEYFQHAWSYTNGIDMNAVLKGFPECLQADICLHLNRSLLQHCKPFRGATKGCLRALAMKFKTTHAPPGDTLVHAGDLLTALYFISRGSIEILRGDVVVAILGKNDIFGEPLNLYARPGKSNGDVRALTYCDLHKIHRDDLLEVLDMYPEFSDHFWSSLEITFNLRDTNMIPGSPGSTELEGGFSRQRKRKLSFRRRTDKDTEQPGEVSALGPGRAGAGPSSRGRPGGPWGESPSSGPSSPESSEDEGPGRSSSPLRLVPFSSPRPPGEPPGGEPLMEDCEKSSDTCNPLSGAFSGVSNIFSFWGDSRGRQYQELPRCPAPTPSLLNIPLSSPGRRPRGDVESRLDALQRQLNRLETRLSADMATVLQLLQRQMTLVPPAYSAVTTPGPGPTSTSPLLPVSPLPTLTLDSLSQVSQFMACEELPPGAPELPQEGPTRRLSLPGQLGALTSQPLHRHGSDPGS

With `COc1cc2c(cc1OC)[C@@H]1C[C@H](N)[C@@H](N3C[C@@H](C)CC3=O)CN1CC2`, the logD in [1] was -0.1. The compound also came in with a permeability in [2] of 0.6 ×10⁻⁶ cm/s. The Activity in the series on Rattus norvegicus [3] is listed as 79%; with Mus musculus [4], 50%. For the same compound, the result in the series with Mus musculus [5] and with Rattus norvegicus [6] was Active. In addition, in the series with Phospholipidosis, the Phospholipidosis entry is reported as “Not Active”.
`COc1cc2c(cc1OC)C1CC(N)C(N3CCCC[S+]3[O-])CN1CC2` (stereo not given): in [1], the logD was -0.4. This compound also registered a permeability in [2] of 0.7 ×10⁻⁶ cm/s. Further, the Activity with Rattus norvegicus [3] came to 18%.
Consider `COc1cc2c(cc1OC)C1CC(N)C(N3CCCC3=O)CN1CC2` (stereo not given), for which, in series [1], the logD is -0.5. Further, in [2], the permeability was 0.6 ×10⁻⁶ cm/s.
In turn, `COc1cc2c(cc1OC)[C@@H]1C[C@H](N)[C@@H](N3CCCCC3=O)CN1CC2` returned a pH-dependent lipophilicity (logD) in series [1] of -0.5. This compound registered a permeability in series [2] of 0.2 ×10⁻⁶ cm/s. For the same compound, in the series with Rattus norvegicus [3], the Activity turned out to be 56%. The inhibition at 10 µM at hERG (KCNH2) [7] stood at 45%. Moreover, the values for the clearance in series [8] and in series [9] were 25 mL/min/kg and 18.7 mL/min/kg, respectively. The Vd in series [10] is 5.9 L/kg; in series [11] it was 8.6 L/kg. For the same compound, the half-life was 4.5 h in series [12] and 9.4 h in series [13]. The bioavailability in series [14] was 47%; in series [15] it was 64%. Also, the Phospholipidosis result with Phospholipidosis was “Not Active”.
In series [1], `COc1cc2c(cc1OC)C1CC(N)C(N3CCCOC3=O)CN1CC2` (stereo not given) showed a logD of -0.9. Also, in series [2], the permeability is 0.1 ×10⁻⁶ cm/s.
Take `COc1cc2c(cc1OC)C1CC(N)C(N3CCC(C)CC3=O)CN1CC2` (stereo not given): the logD in [1] is -0.2. Further, in series [2], the permeability worked out at 0.5 ×10⁻⁶ cm/s. Besides, the Activity with Rattus norvegicus [3] is given as 16%.
Turning to `COc1cc2c(cc1OC)[C@@H]1C[C@H](N)[C@@H](N3C[C@H](C)CC3=O)CN1CC2`, the logD in series [1] was -0.3. Besides, the permeability in series [2] turned out to be 0.8 ×10⁻⁶ cm/s. In addition, in the series on Rattus norvegicus [3], the Activity was 46%.
In turn, `COc1cc2c(cc1OC)C1CC(N)C(N3CCC[S+]3[O-])CN1CC2` (stereo not given) had a log distribution coefficient (logD) in [1] of -0.7. Moreover, the permeability in [2] was found to be 1.2 ×10⁻⁶ cm/s.
`COc1cc2c(cc1OC)C1CC(N)C(N3CC(C)CC3=O)CN1CC2` (stereo not given): in series [1], the logD is -0.2. Further, the permeability in [2] amounted to 0.2 ×10⁻⁶ cm/s. Besides, the Activity with Rattus norvegicus [3] is reported as 42%. In addition, testing at 10 µM on hERG (KCNH2) [7] gave an inhibition of 9%. In addition, in the series on Phospholipidosis, the Phospholipidosis entry is on record as “Not Active”.
In the case of `COc1cc2c(cc1OC)C1CC(N)C(N3CCCCC3=O)CN1CC2` (stereo not given), the logD in series [1] was -0.5. In [2], this compound displayed a permeability of 0.2 ×10⁻⁶ cm/s. For the same compound, in the series on Rattus norvegicus [3], the Activity was determined as 33%.
In turn, `CCC1CC(=O)N(C2CN3CCc4cc(OC)c(OC)cc4C3CC2N)C1` (stereo not given) showed a logD in series [1] of -0.1. For the same compound, the permeability in [2] is 0.9 ×10⁻⁶ cm/s. For the same compound, the Activity in the series on Rattus norvegicus [3] was found to be 31%. The compound further came in with an inhibition at 10 µM against hERG (KCNH2) [7] of 45%.
On to `COc1cc2c(cc1OC)[C@@H]1C[C@H](N)[C@@H](N3C[C@@H](CF)CC3=O)CN1CC2` [CARMEGLIPTIN], for which the logD in series [1] is -0.5. Besides, the permeability in series [2] came to 0.13 ×10⁻⁶ cm/s. Further, the Activity in the series on Rattus norvegicus [3] worked out at 66%; in the series with Mus musculus [4] it was 30%; in the series with Rattus norvegicus [16] it was 1.3 mg/min/kg; in the series with Cynomolgus monkey [18] it was 40%; in the series with Cynomolgus monkey [19], 60%. Further, the result with Mus musculus [5] and with Rattus norvegicus [6] was Active. The same compound showed an IC20 against hERG (KCNH2) [17] of 21 µM. The results for the clearance in series [8] and in [9] were 24 mL/min/kg and 8.5 mL/min/kg, respectively. Also, the Vd in series [10] was found to be 6.3 L/kg; in series [11], 3.3 L/kg. In addition, the figures for the half-life in series [12] and in series [13] were 5.3 h and 6.8 h, respectively. Moreover, the results for the bioavailability in [14] and in [15] were 28% and 33%, respectively. Moreover, the Fraction cleared renally in the series filed under Rattus norvegicus [20], in the series filed under Canis familiaris and with Rhesus monkey was 30% in each case. Further, the Phospholipidosis entry in the series with Phospholipidosis is recorded as “Not Active”.
Consider `COc1cc2c(cc1OC)C1CC(N)C(N3CCOC3=O)CN1CC2` (stereo not given), for which, in series [1], the logD is -0.8. In [2], this compound yielded a permeability of 0 ×10⁻⁶ cm/s.
`COc1cc2c(cc1OC)[C@@H]1C[C@H](N)[C@@H](N3C[C@H](CF)CC3=O)CN1CC2` yielded a pH-dependent lipophilicity (logD) in series [1] of -0.4. The permeability in series [2] is 0.4 ×10⁻⁶ cm/s. Moreover, the Activity in the series with Rattus norvegicus [3] is on record as 77%; in the series with Mus musculus [4], 20%. For the same compound, in the series with Phospholipidosis, the Phospholipidosis result is “Not Active”.
For `COc1cc2c(cc1OC)C1CC(N)C(N3CC(C)CCC3=O)CN1CC2` (stereo not given), in [1], the logD amounted to 0. The permeability in [2] amounted to 1.1 ×10⁻⁶ cm/s. Besides, the Activity with Rattus norvegicus [3] worked out at 34%. Further, the Phospholipidosis entry with Phospholipidosis was “Not Active”.
